Reference: publication PMC10709440, “High-throughput ligand profile characterization in novel cell lines expressing seven heterologous insect olfactory receptors for the detection of volatile plant biomarkers” (Scientific Reports, 2023)
Where “and” joins values, the source holds several entries; their conditions need not be identical. Equal entries are not always repeated. Where two headings read alike, the source gives them in different places.

Experiments:
[1] = target: T1, Drosophila OR47a (Drosophila melanogaster, UniProt P81921); assay: Calcium ion fluorescence (GCaMP6) assay, OR47a stable HEK293 cell line; format: cell-based; conditions: for Average response: OR47a cell line, mean of biological replicates; for DF norm AVERAGE OR47a: normalized fluorescence change, values below 0.05 threshold given as 0
T1 construct: expressed in transfected cells
T1 sequence (P81921 1-385): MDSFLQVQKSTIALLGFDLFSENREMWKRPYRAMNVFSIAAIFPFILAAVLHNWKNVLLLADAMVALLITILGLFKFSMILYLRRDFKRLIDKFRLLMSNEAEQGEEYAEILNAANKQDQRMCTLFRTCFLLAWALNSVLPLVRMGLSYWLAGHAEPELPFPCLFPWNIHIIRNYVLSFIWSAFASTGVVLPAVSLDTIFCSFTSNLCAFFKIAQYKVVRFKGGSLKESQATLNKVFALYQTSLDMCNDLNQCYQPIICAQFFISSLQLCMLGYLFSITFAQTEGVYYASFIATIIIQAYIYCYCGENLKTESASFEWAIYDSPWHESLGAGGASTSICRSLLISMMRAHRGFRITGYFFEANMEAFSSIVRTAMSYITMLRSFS
T1 sequence (Q9VNB5 1-486 partner): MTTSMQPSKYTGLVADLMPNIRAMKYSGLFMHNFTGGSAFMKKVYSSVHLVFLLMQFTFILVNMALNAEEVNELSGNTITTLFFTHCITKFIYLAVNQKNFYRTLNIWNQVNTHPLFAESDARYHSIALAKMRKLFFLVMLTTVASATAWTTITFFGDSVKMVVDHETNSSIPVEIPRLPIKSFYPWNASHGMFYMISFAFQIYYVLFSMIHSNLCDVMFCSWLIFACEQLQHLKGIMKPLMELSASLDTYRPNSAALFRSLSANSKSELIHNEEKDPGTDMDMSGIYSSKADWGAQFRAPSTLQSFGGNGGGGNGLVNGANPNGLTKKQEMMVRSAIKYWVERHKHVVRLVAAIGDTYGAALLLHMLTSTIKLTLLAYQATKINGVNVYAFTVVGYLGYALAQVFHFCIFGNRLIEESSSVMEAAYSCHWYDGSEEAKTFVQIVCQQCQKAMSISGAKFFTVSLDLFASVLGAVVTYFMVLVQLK
Method in brief: (§1)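 Responses are VUAA1-normalized ΔF: each VOC-evoked calcium signal, (FMAX−F0)/F0 over 30 s after injection, divided by the same line's mean 50 µM VUAA1 response. Cells were doxycycline-induced HEK293 with GCaMP6 and the cognate Drosophila OR, in HEPES buffer pH 7.3; ligands tested 0.01–100 μM.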

[2] = target: T2, Drosophila OR85b (Drosophila melanogaster, UniProt Q9VHQ7); assay: Calcium ion fluorescence (GCaMP6) assay, OR85b stable HEK293 cell line; format: cell-based; conditions: for Average response: OR85b cell line, VUAA1-normalized response, mean of biological replicates; for DF norm AVERAGE OR85b: normalized fluorescence change, values below 0.05 threshold given as 0
T2 construct: expressed in transfected cells
T2 sequence (Q9VHQ7 1-390): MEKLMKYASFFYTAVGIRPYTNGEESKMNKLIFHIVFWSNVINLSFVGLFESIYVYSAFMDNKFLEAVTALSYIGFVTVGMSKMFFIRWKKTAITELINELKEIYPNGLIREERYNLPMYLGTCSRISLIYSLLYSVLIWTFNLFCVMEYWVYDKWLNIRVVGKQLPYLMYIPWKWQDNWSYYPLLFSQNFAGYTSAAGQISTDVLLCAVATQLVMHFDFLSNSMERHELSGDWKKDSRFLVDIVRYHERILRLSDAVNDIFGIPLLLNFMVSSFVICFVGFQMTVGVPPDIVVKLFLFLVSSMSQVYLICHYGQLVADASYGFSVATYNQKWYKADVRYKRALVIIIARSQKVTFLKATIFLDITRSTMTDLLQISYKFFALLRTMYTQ
T2 sequence (Q9VNB5 1-486 partner): T1 sequence (Q9VNB5 1-486 partner)
Method in brief: as §1

[3] = HEK293, read-out: OR47a Average response (VUAA1-normalized)
[4] = HEK293, read-out: OR47a response (VUAA1-normalized response)
[5] = HEK293, read-out: OR85b Average response (VUAA1-normalized)
[6] = HEK293, read-out: OR85b response (VUAA1-normalized response)
[7] = VOC concentration 0.15 (unit not given)
[8] = VOC concentration 0.3 (unit not given)
[9] = VOC concentration 0.6 (unit not given)
[10] = VOC concentration 1.25 (unit not given)
[11] = VOC concentration 2.5 (unit not given)
[12] = VOC concentration 5 (unit not given)
[13] = VOC concentration 10 (unit not given)
[14] = VOC concentration 20 (unit not given)
[15] = VOC concentration 40 (unit not given)
[16] = VOC concentration 60 (unit not given)
[17] = VOC concentration 80 (unit not given)
[18] = VOC concentration 100 (unit not given)

CCCCCC(C)=O [2-heptanone]
activation at 1 µM [1, 3]: 3%
activation at 10 µM [1, 3]: 19%
activation at 100 µM [1, 3]: 46%
activation at 1 µM [1, 4]: 0%
activation at 10 µM [1, 4]: 19%
activation at 100 µM [1, 4]: 46%
Average response ([1]; odorant cc. 1 µM): 0.03
Average response ([1]; odorant cc. 10 µM): 0.19
Average response ([1]; odorant cc. 100 µM): 0.46
DF norm AVERAGE OR47a ([1]; concentration 1): 0
DF norm AVERAGE OR47a ([1]; concentration 10): 0.1895
DF norm AVERAGE OR47a ([1]; concentration 100): 0.4589
EC50 ([2]; AVERAGE EC50, from average LOG EC50, N 5): 68.9 µM
EC50 ([2]; EC50 (fitted parameter), individual biological replicates): 50.9 µM and 47.5 µM and 41.7 µM and 42.2 µM
EC50 ([2]; EC50, AVERAGE, arithmetic average of 5 replicate EC50): 110 µM
EC50 ([2]; EC50, FITTED AVERAGE CURVE, fit to the average curve): 72.2 µM
EC50 ([2]; EC50, OR85b cell line, fitted Hill equation, Hill coefficient constrained to 1, maximal response max 1): 68.9 µM
activation at 1 µM [2, 5]: 4%
activation at 10 µM [2, 5]: 20%
activation at 100 µM [2, 5]: 55%
activation at 1 µM [2, 6]: 0%
activation at 10 µM [2, 6]: 20%
activation at 100 µM [2, 6]: 55%
Emax ([2]; HEK293, read-out: VUAA1 normalized MAX response): 72%
EC50 ([2]; LOG EC50 (fitted parameter), individual biological replicates, OR85b D-R sheet): 50.9 µM and 47.5 µM and 41.7 µM and 42.2 µM
EC50 ([2]; LOG EC50, AVERAGE, average of 5 biological replicates): 68.9 µM
Average response ([2]; cc. 1 µM): 0.037
Average response ([2]; cc. 10 µM): 0.20
Average response ([2]; cc. 100 µM): 0.55
response, AVERAGE [2, 7]: 0
response, biological replicates [2, 7]: 0
response, AVERAGE [2, 8]: 0
response, biological replicates [2, 8]: 0
response, AVERAGE [2, 9]: 0.02418
response, biological replicates [2, 9]: 0 (3×) and 0.06045 (2×)
response, AVERAGE [2, 10]: 0
response, biological replicates [2, 10]: 0
response, AVERAGE [2, 11]: 0
response, biological replicates [2, 11]: 0
response, AVERAGE [2, 12]: 0.05175
response, biological replicates [2, 12]: 0 (2×) and 0.08029 and 0.08922 (2×)
response, AVERAGE [2, 13]: 0.07565
response, biological replicates [2, 13]: 0.1715 and 0 and 0.05971 and 0.07351 (2×)
response, AVERAGE [2, 14]: 0.1574
response, biological replicates [2, 14]: 0.2412 and 0.05753 and 0.1726 and 0.1579 (2×)
response, AVERAGE [2, 15]: 0.2822
response, biological replicates [2, 15]: 0.4423 and 0.101 and 0.2153 and 0.3264 (2×)
response, AVERAGE [2, 16]: 0.3295
response, biological replicates [2, 16]: 0.5597 and 0.152 and 0.2767
response, AVERAGE [2, 17]: 0.3923
response, biological replicates [2, 17]: 0.6627 and 0.1546 and 0.3278 and 0.4082 (2×)
response, AVERAGE [2, 18]: 0.3199
response, biological replicates [2, 18]: 0.2321 and 0.3319 and 0.3577 (2×)
AVERAGE MAX ([2]; average of 5 biological replicates): 0.7284
DF norm AVERAGE OR85b ([2]; concentration 1): 0
DF norm AVERAGE OR85b ([2]; concentration 10): 0.1962
DF norm AVERAGE OR85b ([2]; concentration 100): 0.5508
MAX, fitted average curve ([2]; fit to the average curve): 0.6682
MAX (fitted parameter) ([2]; individual biological replicates): 1 (2×) and 0.5003 and 0.5695 and 0.5722

C=C1[C@H]2CC[C@@H]3[C@H]2C(C)(C)CCC[C@]13C [(+)-longifolene]
Average response ([1]; odorant cc. 1 µM): 0.00
Average response ([1]; odorant cc. 10 µM): 0.00
Average response ([1]; odorant cc. 100 µM): 0.0238
OR47a response (VUAA1-normalized response) ([1]; VOC concentration 1 μM): 0.00
OR47a response (VUAA1-normalized response) ([1]; VOC concentration 10 μM): 0.00
OR47a response (VUAA1-normalized response) ([1]; VOC concentration 100 μM): 0.00
DF norm AVERAGE OR47a ([1]; concentration 1): 0
DF norm AVERAGE OR47a ([1]; concentration 10): 0
DF norm AVERAGE OR47a ([1]; concentration 100): 0
Average response ([2]; cc. 1 µM): 0.08
Average response ([2]; cc. 10 µM): 0.11
Average response ([2]; cc. 100 µM): 0.05
OR85b response (VUAA1-normalized response) ([2]; VOC concentration 1 μM): 0.08
OR85b response (VUAA1-normalized response) ([2]; VOC concentration 10 μM): 0.11
OR85b response (VUAA1-normalized response) ([2]; VOC concentration 100 μM): 0.00
DF norm AVERAGE OR85b ([2]; concentration 1): 0.0834
DF norm AVERAGE OR85b ([2]; concentration 10): 0.1092
DF norm AVERAGE OR85b ([2]; concentration 100): 0
